Assay results published in US9434711B2 (Janssen Pharmaceutica, NV, priority 2007, dated 2016).
pIC50: −log10 of the molar value.

Target: canine TRPM8 (Canis lupus familiaris, UniProt Q1A7N1)
Experiment: In Vitro Canine TRPM8 Functional Assay (Ca2+ fluorescence, icilin activation)
Assay type: cell-based
Conditions: for inhibition at 0.2 µM / % Inh @ 0.2 (μM): compound at 0.2 μM, canine TRPM8, icilin activation; for inhibition at 0.2 µM: read-out: % Inh @ 0.2; for pIC50: HEK293 cells stably expressing canine TRPM8, icilin activation, eight-point dose-response, read-out: IC50
In short: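 Eight-point dose-response curves in quadruplicate gave EC50 or IC50 values from a Ca2+-sensitive dye assay in HEK293 cells stably carrying canine TRPM8. Icilin, dosed near its 80% maximal level, followed a 5 min compound exposure.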

Chain of canine TRPM8 (Q1A7N1 1-1104): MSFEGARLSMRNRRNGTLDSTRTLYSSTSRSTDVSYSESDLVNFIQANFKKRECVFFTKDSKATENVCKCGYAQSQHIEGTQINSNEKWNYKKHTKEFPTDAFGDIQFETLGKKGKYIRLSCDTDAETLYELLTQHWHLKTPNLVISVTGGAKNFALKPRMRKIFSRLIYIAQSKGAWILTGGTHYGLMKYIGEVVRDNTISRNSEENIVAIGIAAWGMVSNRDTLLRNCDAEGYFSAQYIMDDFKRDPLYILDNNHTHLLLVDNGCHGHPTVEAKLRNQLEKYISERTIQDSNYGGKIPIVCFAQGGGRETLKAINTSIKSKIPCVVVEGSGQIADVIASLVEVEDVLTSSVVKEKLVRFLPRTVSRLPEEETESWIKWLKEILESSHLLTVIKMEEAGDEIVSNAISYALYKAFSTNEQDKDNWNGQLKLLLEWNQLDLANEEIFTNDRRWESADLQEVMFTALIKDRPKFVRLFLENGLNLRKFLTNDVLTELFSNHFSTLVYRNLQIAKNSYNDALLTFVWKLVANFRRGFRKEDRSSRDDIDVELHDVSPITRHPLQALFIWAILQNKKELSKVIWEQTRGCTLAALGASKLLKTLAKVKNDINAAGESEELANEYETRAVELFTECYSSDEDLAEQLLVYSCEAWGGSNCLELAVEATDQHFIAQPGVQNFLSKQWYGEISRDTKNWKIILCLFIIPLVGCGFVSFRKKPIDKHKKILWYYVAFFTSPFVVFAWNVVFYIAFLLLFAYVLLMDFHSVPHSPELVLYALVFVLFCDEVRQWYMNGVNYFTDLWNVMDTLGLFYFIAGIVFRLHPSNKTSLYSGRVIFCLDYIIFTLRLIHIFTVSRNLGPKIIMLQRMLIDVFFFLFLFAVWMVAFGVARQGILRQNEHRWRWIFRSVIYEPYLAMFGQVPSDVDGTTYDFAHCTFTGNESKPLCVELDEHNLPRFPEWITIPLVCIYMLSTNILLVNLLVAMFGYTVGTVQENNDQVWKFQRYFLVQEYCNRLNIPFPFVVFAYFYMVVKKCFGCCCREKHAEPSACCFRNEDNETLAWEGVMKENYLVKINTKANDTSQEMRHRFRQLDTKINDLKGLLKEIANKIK

SMILES | inhibition at 0.2 µM [%] | % Inh @ 0.2 (μM) [%] | pIC50
CCCNCc1c(N(Cc2ccc(F)c(C(F)(F)F)c2)S(=O)(=O)CC)sc2ccccc12 [Compound 348, N-(4-Fluoro-3-trifluoromethyl-benzyl)-N-(3-propylaminomethyl-benzo[b]thiophen-2-yl)-ethanesulfonamide] | 60 | – | –
CCS(=O)(=O)N(Cc1ccc(F)c(C(F)(F)F)c1)c1sc2ccccc2c1CN1CCCC1 [Compound 349, N-(4-Fluoro-3-trifluoromethyl-benzyl)-N-(3-pyrrolidin-1-yl-methyl-benzo[b]thiophen-2-yl)-ethanesulfonamide] | – | 42 | –
CS(=O)(=O)CS(=O)(=O)N(Cc1ccc(F)c(C(F)(F)F)c1)c1sc2ccccc2c1Br [Compound 350, N-(3-Bromo-benzo[b]thiophen-2-yl)-N-(4-fluoro-3-trifluoromethyl-benzyl)-C-methanesulfonyl-methanesulfonamide] | 48 | – | –
CC(=O)c1ccc(S(=O)(=O)N(CCCC(F)(F)F)c2sc3ccccc3c2C)cc1 [Compound 351, N-(3-Methyl-benzo[b]thiophen-2-yl)-N-(4,4,4-trifluoro-butyl)-4-acetyl-benzenesulfonamide] | 97 | – | 7.67
CC(=O)c1ccc(S(=O)(=O)N(Cc2ccc(F)c(C(F)(F)F)c2)c2sc3ccccc3c2C)cc1 [Compound 352, N-(3-Methyl-benzo[b]thiophen-2-yl)-N-(4-fluoro-3-trifluoromethyl-benzyl)-4-acetyl-benzenesulfonamide] | 96 | – | 8.07
Cc1nccc(-c2cccc(S(=O)(=O)N(Cc3ccc(F)c(C(F)(F)F)c3)c3sc4ccccc4c3C)c2)n1 [Compound 353, N-(3-Methyl-benzo[b]thiophen-2-yl)-N-(4-fluoro-3-trifluoromethyl-benzyl)-3-(2-methyl-pyrimidin-4-yl)-benzenesulfonamide] | 98 | – | 8.03
Cc1nccc(-c2cccc(S(=O)(=O)N(CCCC(F)(F)F)c3sc4ccccc4c3C)c2)n1 [Compound 354, N-(3-Methyl-benzo[b]thiophen-2-yl)-N-(4,4,4-trifluoro-butyl)-3-(2-methyl-pyrimidin-4-yl)-benzenesulfonamide] | 87 | – | 6.97
COc1ccc(S(=O)(=O)N(Cc2ccc(F)c(C(F)(F)F)c2)c2sc3ccccc3c2C)c2cccnc12 [Compound 355] | – | 92 | 7.53
COc1ccc(S(=O)(=O)N(CCCC(F)(F)F)c2sc3ccccc3c2C)c2cccnc12 [Compound 356, N-(3-Methyl-benzo[b]thiophen-2-yl)-N-(4,4,4-trifluoro-butyl)-8-methoxyquinolin-5-ylsulfonamide] | 93 | – | 7.38
COc1ncccc1S(=O)(=O)N(Cc1ccc(F)c(C(F)(F)F)c1)c1sc2ccccc2c1C [Compound 357, N-(3-Methyl-benzo[b]thiophen-2-yl)-N-(4-fluoro-3-trifluoromethyl-benzyl)-2-methoxy-pyridin-3-ylsulfonamide] | 95 | – | 7.72
Cc1c(N(Cc2ccc(F)c(C(F)(F)F)c2)S(=O)(=O)c2cccnc2N(C)C)sc2ccccc12 [Compound 358, N-(3-Methyl-benzo[b]thiophen-2-yl)-N-(4-fluoro-3-trifluoromethyl-benzyl)-2-dimethylamino-pyridin-3-yl-sulfonamide] | 92 | – | 7.92
COc1ccc(S(=O)(=O)N(Cc2ccc(F)c(C(F)(F)F)c2)c2sc3ccccc3c2C)cn1 [Compound 359] | 93 | – | 7.77
Cc1c(N(Cc2ccc(F)c(C(F)(F)F)c2)S(=O)(=O)c2cnccc2N(C)C)sc2ccccc12 [Compound 360, N-(3-Methyl-benzo[b]thiophen-2-yl)-N-(4-fluoro-3-trifluoromethyl-benzyl)-4-dimethylamino-pyridin-3-yl-sulfonamide] | – | – | 7.39
Cc1c(N(Cc2ccc(F)c(C(F)(F)F)c2)S(=O)(=O)c2ccc(N(C)C)nc2)sc2ccccc12 [Compound 360] | 92 | – | –
CS(=O)(=O)CS(=O)(=O)N(Cc1ccc(F)c(C(F)(F)F)c1)c1cc2ccccc2s1 [Compound 362, N-(Benzo[b]thiophen-2-yl)-N-(4-fluoro-3-trifluoromethyl-benzyl)-C-methanesulfonyl-methanesulfonamide] | 67 | – | –
CCCCN(c1sc2ccccc2c1C)S(C)(=O)=O [Compound 363, N-(Butyl)-N-(3-methyl-benzo[b]thiophen-2-yl)-methanesulfonamide] | 84 | – | 7.29
Cc1c(N(CCC(F)(F)F)S(C)(=O)=O)sc2ccccc12 [Compound 364, N-(3-Methyl-benzo[b]thiophen-2-yl)-N-(3,3,3-trifluoro-propyl)-methanesulfonamide] | 77 | – | 7.36

SMILES | inhibition at 0.2 µM [%] | % Inh @ 0.2 (μM) [%] | pIC50
Cc1c(N(CC2CC2)S(C)(=O)=O)sc2ccccc12 [Compound 365, N-(Cyclopropylmethyl)-N-(3-methyl-benzo[b]thiophen-2-yl)-methanesulfonamide] | 38 | – | –
Cc1c(N(CCOC(C)(C)C)S(C)(=O)=O)sc2ccccc12 [Compound 366, N-(2-tert-Butoxy-ethyl)-N-(3-methyl-benzo[b]thiophen-2-yl)-methanesulfonamide] | 85 | – | 7.40
Cc1c(N(Cc2ccc(F)c(F)c2)S(C)(=O)=O)sc2ccccc12 [Compound 367, N-(3,4-Difluoro-benzyl)-N-(3-methyl-benzo[b]thiophen-2-yl)-methanesulfonamide] | 91 | – | 8.00
Cc1c(N(Cc2ccc(F)c(C(F)(F)F)c2)S(C)(=O)=O)sc2ccccc12 [Compound 368, N-(4-Fluoro-3-trifluoromethyl-benzyl)-N-(3-methyl-benzo[b]thiophen-2-yl)-methanesulfonamide] | 96 | – | 7.74
Cc1c(N(Cc2ccc(OC(F)(F)F)cc2)S(C)(=O)=O)sc2ccccc12 [Compound 369, N-(3-Methyl-benzo[b]thiophen-2-yl)-N-(4-trifluoromethoxy-benzyl)-methanesulfonamide] | 98 | – | 7.74
N#Cc1cccc(S(=O)(=O)N(Cc2ccc(F)c(C(F)(F)F)c2)c2cc3ccccc3s2)c1 [Compound 370, N-(Benzo[b]thiophen-2-yl)-N-(4-fluoro-3-trifluoromethyl-benzyl)-3-cyano-benzenesulfonamide] | 29 | – | –
Cc1c(N(CCCC(F)(F)F)S(=O)(=O)c2ccc(C(C)(C)O)cc2)sc2ccccc12 [Compound 371, N-(3-Methyl-benzo[b]thiophen-2-yl)-N-(4,4,4-trifluoro-butyl)-4-(1-hydroxy-1-methyl-ethyl)-benzenesulfonamide] | 94 | – | 8.05
Cc1c(N(CCCC(F)(F)F)S(=O)(=O)c2ccc(Oc3ccncc3)cc2)sc2ccccc12 [Compound 372, N-(3-Methyl-benzo[b]thiophen-2-yl)-N-(4,4,4-trifluoro-butyl)-4-(pyridin-4-yloxy)-benzenesulfonamide] | 91 | – | 7.57
Cc1c(N(CCCC(F)(F)F)S(=O)(=O)c2ccc(Oc3cccnc3)cc2)sc2ccccc12 [Compound 373, N-(3-Methyl-benzo[b]thiophen-2-yl)-N-(4,4,4-trifluoro-butyl)-4-(pyridin-3-yloxy)-benzenesulfonamide] | 77 | – | 6.91
Cc1c(N(Cc2ccc(F)c(C(F)(F)F)c2)S(=O)(=O)c2ccc(C(C)(C)O)cc2)sc2ccccc12 [Compound 374, N-(3-Methyl-benzo[b]thiophen-2-yl)-N-(4-fluoro-3-trifluoromethyl-benzyl)-4-(1-hydroxy-1-methyl-ethyl)-benzenesulfonamide] | 89 | – | 8.40
COC(=O)c1cccc(S(=O)(=O)N(Cc2ccc(F)c(C(F)(F)F)c2)c2sc3cc(F)ccc3c2C)c1 [Compound 375, N-(6-Fluoro-3-methyl-benzo[b]thiophen-2-yl)-N-(4-fluoro-3-trifluoromethyl-benzyl)-3-carbomethoxy-benzenesulfonamide] | 79 | – | 7.43
Cc1c(N(Cc2ccc(F)c(C(F)(F)F)c2)S(=O)(=O)c2cccc(C(=O)O)c2)sc2cc(F)ccc12 [Compound 376, N-(6-Fluoro-3-methyl-benzo[b]thiophen-2-yl)-N-(4-fluoro-3-trifluoromethyl-benzyl)-3-carboxy-benzenesulfonamide] | 85 | – | 7.59
CSc1ncccc1S(=O)(=O)N(Cc1ccc(F)c(C(F)(F)F)c1)c1sc2ccccc2c1C [Compound 377, N-(3-Methyl-benzo[b]thiophen-2-yl)-N-(4-fluoro-3-trifluoromethyl-benzyl)-2-thiomethyl-pyridin-3-yl-sulfonamide] | – | 65 | –
COC(=O)c1cccc(CN(c2cc3ccccc3s2)S(=O)(=O)c2cccnc2)c1 [Compound 379, N-(Benzo[b]thiophen-2-yl)-N-(3-carbomethoxy-benzyl)-pyridin-3-ylsulfonamide] | 54 | – | –
COC(=O)c1ccc(CN(c2cc3ccccc3s2)S(=O)(=O)c2cccnc2)cc1 [Compound 380, N-(Benzo[b]thiophen-2-yl)-N-(4-carbomethoxy-benzyl)-pyridin-3-ylsulfonamide] | 24 | – | –
O=S(=O)(c1ccccc1)N(Cc1ccc(F)c(C(F)(F)F)c1)c1sc2ccccc2c1CN1CCCC1 [Compound 381, N-(4-Fluoro-3-trifluoromethyl-benzyl)-N-(3-pyrrolidin-1-yl-methyl-benzo[b]thiophen-2-yl)-benzenesulfonamide] | – | 20 | –
CCCCN(c1cc2ccccc2s1)S(C)(=O)=O [Compound 382, N-(Benzo[b]thiophen-2-yl)-N-(butyl)-methanesulfonamide] | 17 | – | –
